The text below walks through data of US20260207563A1, “UREA COMPOUNDS AS ACTIVATORS OF POTASSIUM CHANNELS KV7.2/7.3 USEFUL IN THE TREATMENT OF CNS AND PNS DISORDERS” (ANGELINI PHARMA S.P.A., priority 2022, published 2026).

SMILES strings stand for the structures.

Holding throughout (assay type): cell-based
Assay [1] concerns the target T1, heteromeric KV7.2/KV7.3 channels (KCNQ2, KCNQ3) (Homo sapiens, UniProt O43525+O43526).
T1 construct: expressed in transfected cells; host or cells: CHO-K1
Description: Automated patch-clamp (Sophion Qube 384) potency assay against KV7.2/KV7.3 channels. The following applies: CHO-K1/Kv7.2/Kv7.3 cells; for EC50: EC50 from concentration-response of shift in Vhalf, 10 concentrations up to 30 μM, read-out: Kv7.2/7.3 EC50; for Kv7.2/7.3 ΔV1/2: maximal shift in the Vhalf from the top of the curve. The method, boiled down:
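Activator potency: EC50 from 4-parameter logistic fit of mean Vhalf shift across ten 1-in-3 dilutions starting at 30 μM (n=4), with DMSO (typically 0.3%) control. Currents recorded by leak-subtracted whole-cell clamp of stable CHO-K1 KV7.2/KV7.3 cells, held at −80 mV, stepped −100 to +20 mV then 0 mV tails.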
For orientation: In patch-clamp work, channel activity is measured electrically.

Assay [2] addresses T2, heteromeric KV7.3/KV7.5 channel (KCNQ3, KCNQ5) (Homo sapiens, UniProt O43525+Q9NR82).
T2 construct: host or cells: HEK293
Description: Automated patch-clamp counter-screening against KV7.3/KV7.5 channel. As to conditions: HEK293 cells expressing Kv7.3/KV7.5; class by maximal shift in the Vhalf at 30 μM. The method, boiled down: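 Potency came from a 4-parameter logistic fit of mean voltage-of-half-activation shifts, yielding EC50 and maximal shift; selectivity was judged on the shift at 30 μM. Compounds were applied at ten 3-fold dilutions from 30 μM in quadruplicate to HEK293 cells stably carrying Kv7.3 with tet-inducible Kv7.5.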

Assay [3] deals with T3, homomeric KV7.4 channel (KCNQ4) (Homo sapiens, UniProt P56696).
T3 construct: host or cells: CHO-K1
The assay can be described thus: Automated patch-clamp (Qube) counter-screening assay against KV7.4 channel. As to conditions: CHO-K1 cells expressing KV7.4; class by maximal shift in the Vhalf at 30 μM. An outline of the steps:
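EC50 and maximal shift in half-activation voltage come from 4-parameter logistic fits of mean Vhalf shifts. The series had ten 1-in-3 concentrations, highest 30 μM, each tested in quadruplicate. Recordings used automated Qube patch clamp on a stable CHO-K1 line expressing KCNQ4, and selectivity was judged from the 30 μM Vhalf shift.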

Consider `O=C(NCc1ccnc(OCC(F)(F)F)c1)N[C@@H]1CCCc2ccccc21` [Compound 156], for which, in assay [1], the EC50 was found to be 1850 nM and the “Kv7.2/7.3 ΔV1/2” value is listed as 55.46 mV. For the same molecule, the Kv7.3/7.5 selectivity criteria entry in assay [2] is listed as “B (Non-selective compounds showed Kv7.4 and/or Kv7.3/7.5 ΔV1/2 higher than 15 mV (letter B in table 3))”. The Kv7.4 selectivity criteria result in assay [3] was “B (Non-selective compounds showed Kv7.4 and/or Kv7.3/7.5 ΔV1/2 higher than 15 mV (letter B in table 3))”.
In the case of `CC1(NC(=O)NCc2ccnc(OCC(F)(F)F)c2)Cc2ccccc2C1` [Compound 114], in assay [1], the EC50 stood at 672 nM and the “Kv7.2/7.3 ΔV1/2” value worked out at 32.56 mV. Moreover, the Kv7.3/7.5 selectivity criteria result in assay [2] is “B (Non-selective compounds showed Kv7.4 and/or Kv7.3/7.5 ΔV1/2 higher than 15 mV (letter B in table 3))”. Further, in assay [3], the Kv7.4 selectivity criteria result is “A (Selective compounds showed Kv7.4 and/or Kv7.3/7.5 ΔV1/2 equal to or lower than 15 mV (letter A in table 3))”.
Turning to `O=C(NCCC1(C(F)(F)F)CC1)NCc1cc(OCC(F)(F)F)ncc1F` [Compound 87, 1-((5-Fluoro-2-(2,2,2-trifluoroethoxy)pyridin-4-yl)methyl)-3-(2-(1-(trifluoromethyl)cyclopropyl)ethyl)urea], in assay [1], the EC50 came to 1850 nM and the “Kv7.2/7.3 ΔV1/2” value was found to be 27.66 mV. For the same molecule, the Kv7.3/7.5 selectivity criteria result in assay [2] is given as “A (Selective compounds showed Kv7.4 and/or Kv7.3/7.5 ΔV1/2 equal to or lower than 15 mV (letter A in table 3))”. Moreover, the Kv7.4 selectivity criteria result in assay [3] is on record as “A (Selective compounds showed Kv7.4 and/or Kv7.3/7.5 ΔV1/2 equal to or lower than 15 mV (letter A in table 3))”.
For `CC(NC(=O)NCCC1(C(F)(F)F)CC1)c1ccnc(OCC(F)(F)F)n1` (centres unmarked) [Compound 104], in assay [1], the EC50 worked out at 3090 nM and the “Kv7.2/7.3 ΔV1/2” value was 21.96 mV. Also, the Kv7.3/7.5 selectivity criteria result in assay [2] is “A (Selective compounds showed Kv7.4 and/or Kv7.3/7.5 ΔV1/2 equal to or lower than 15 mV (letter A in table 3))”. In assay [3], the Kv7.4 selectivity criteria entry is recorded as “A (Selective compounds showed Kv7.4 and/or Kv7.3/7.5 ΔV1/2 equal to or lower than 15 mV (letter A in table 3))”.
Turning to `O=C(NCc1ccnc(OCC(F)(F)F)c1)N[C@H]1CCc2c(Cl)cccc21` [Compound 143], in assay [1], the EC50 came to 3970 nM and the “Kv7.2/7.3 ΔV1/2” value came out at 22.37 mV. Besides, in assay [2], the Kv7.3/7.5 selectivity criteria result is recorded as “B (Non-selective compounds showed Kv7.4 and/or Kv7.3/7.5 ΔV1/2 higher than 15 mV (letter B in table 3))”. The Kv7.4 selectivity criteria entry in assay [3] is given as “A (Selective compounds showed Kv7.4 and/or Kv7.3/7.5 ΔV1/2 equal to or lower than 15 mV (letter A in table 3))”.
As to `N#Cc1cccc2c1CC[C@H]2NC(=O)NCc1ccnc(OCC(F)(F)F)c1` [Compound 158], in assay [1], the EC50 turned out to be 2550 nM and the “Kv7.2/7.3 ΔV1/2” value was 31.18 mV. Further, the Kv7.3/7.5 selectivity criteria result in assay [2] is on record as “B (Non-selective compounds showed Kv7.4 and/or Kv7.3/7.5 ΔV1/2 higher than 15 mV (letter B in table 3))”. The Kv7.4 selectivity criteria entry in assay [3] is recorded as “B (Non-selective compounds showed Kv7.4 and/or Kv7.3/7.5 ΔV1/2 higher than 15 mV (letter B in table 3))”.
In the case of `O=C(NCc1ccnc(OCC(F)(F)F)c1)Nc1cccc2c1CCC2` [Compound 154], in assay [1], the EC50 is 617 nM and the “Kv7.2/7.3 ΔV1/2” value is 24.51 mV. For the same molecule, in assay [2], the Kv7.3/7.5 selectivity criteria result was “A (Selective compounds showed Kv7.4 and/or Kv7.3/7.5 ΔV1/2 equal to or lower than 15 mV (letter A in table 3))”. Moreover, the Kv7.4 selectivity criteria entry in assay [3] is given as “A (Selective compounds showed Kv7.4 and/or Kv7.3/7.5 ΔV1/2 equal to or lower than 15 mV (letter A in table 3))”.
As to `C[C@@H](Oc1nccc(CNC(=O)NCCC2(C(F)(F)F)CC2)n1)C(F)(F)F` [Compound 93], in assay [1], the EC50 turned out to be 4460 nM and the “Kv7.2/7.3 ΔV1/2” value is 34.16 mV. The Kv7.3/7.5 selectivity criteria entry in assay [2] is “A (Selective compounds showed Kv7.4 and/or Kv7.3/7.5 ΔV1/2 equal to or lower than 15 mV (letter A in table 3))”. Also, the Kv7.4 selectivity criteria result in assay [3] was “B (Non-selective compounds showed Kv7.4 and/or Kv7.3/7.5 ΔV1/2 higher than 15 mV (letter B in table 3))”.
